What was measured:
Format in all cases: cell-based
[1] = molecular target: T1, signal peptidase IB (SpsB) (Staphylococcus aureus, UniProt P0A070); experiment: FRET substrate cleavage assay with SpsB (activation)
T1 sequence (P0A070 1-191): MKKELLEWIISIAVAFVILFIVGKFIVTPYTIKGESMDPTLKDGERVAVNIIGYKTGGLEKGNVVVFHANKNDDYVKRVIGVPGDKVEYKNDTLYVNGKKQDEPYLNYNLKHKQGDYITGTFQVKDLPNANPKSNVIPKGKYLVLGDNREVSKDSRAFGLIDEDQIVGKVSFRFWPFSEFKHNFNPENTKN

[2] = molecular target: signal peptidase IB (SpsB) (Staphylococcus aureus, UniProt P0A070, Q165A); experiment: enzyme turnover assay with SpsB mutant (activation retained)
[3] = molecular target: signal peptidase IB (SpsB) (Staphylococcus aureus, UniProt P0A070); experiment: FRET substrate cleavage assay with membrane-bound SpsB (activation); supported by competition of photoprobe labelling in cells and loss of activation in pocket mutants

Row | Structure (SMILES) | FRET substrate cleavage assay with SpsB (activation) [1] | enzyme turnover assay with SpsB mutant (activation retained) [2] | % [3]
1 | Nc1nccn1Cc1ccc(-c2ccc(Br)cc2)o1 [D16] | Further structural derivatives (D10, D14, and D16) also showed SpsB activation in the FRET assay | – | –
2 | N=C(N)NCc1ccc(-c2ccc(Br)cc2)s1 [D10] | Further structural derivatives (D10, D14, and D16) also showed SpsB activation in the FRET assay | – | –
3 | NCc1ccc(-c2ccc(Br)cc2)o1 [D14] | Further structural derivatives (D10, D14, and D16) also showed SpsB activation in the FRET assay | – | –
4 | N=C(N)NCc1ccc(-c2ccc(Br)cc2)o1 [L15] | – | while Q165A, a control mutation that does not affect binding, still showed activation | ~ 150%

Reference: PMC11350587, “Screening Privileged Alkyl Guanidinium Motifs under Host-Mimicking Conditions Reveals a Novel Antibiotic with an Unconventional Mode of Action” (JACS Au, 2024)
